Test results taken from PMC8480776, “Selenium Derivatives as Promising Therapy for Chagas Disease: In Vitro and In Vivo Studies” (ACS Infectious Diseases, 2021).
Like-named read-outs stand apart in the source and are kept apart here.

Legend:
[1] = test system: T. cruzi trypomastigotes, Arequipa strain; assay: Screening against bloodstream trypomastigotes, Arequipa strain; format: cell-based, Trypanosoma cruzi; settings: Trypanosoma cruzi; bloodstream trypomastigotes, 24 h + 4 h resazurin; read-out: activity IC50, Arequipa strain, trypom. forms
[2] = test system: T. cruzi trypomastigotes, Tulahuen strain; assay: Screening against bloodstream trypomastigotes, Tulahuen strain; format: cell-based, Trypanosoma cruzi; settings: Trypanosoma cruzi, TULAHUEN; bloodstream trypomastigotes, 24 h + 4 h resazurin; read-out: activity IC50, Tulahuen strain, trypom. forms
[3] = test system: T. cruzi amastigotes, Arequipa strain; assay: Screening against intracellular amastigotes, Arequipa strain; format: cell-based, Trypanosoma cruzi; settings: Trypanosoma cruzi; amastigotes in Vero cells, 72 h; read-out: activity IC50, Arequipa strain, am. forms
Vero cells = assay: Cytotoxicity test on Vero cells; format: cell-based; settings: Chlorocebus sabaeus, 48 h + 24 h resazurin, read-out: Toxicity IC50 Vero cell
[4] = test system: epimastigotes of T. cruzi Arequipa strain; assay: Flow cytometry analysis of nucleic acid levels (acridine orange); format: cell-based, Trypanosoma cruzi; settings: IC25 concentrations, 72 h
[5] = test system: Vero cells infected with T. cruzi Arequipa strain; assay: Infection rate in Vero cells (infected cells), Arequipa strain; format: cell-based; settings: Trypanosoma cruzi, 72 h of treatment
[6] = test system: T. cruzi amastigotes, SN3 strain; assay: Screening against intracellular amastigotes, SN3 strain; format: cell-based, Trypanosoma cruzi; settings: Trypanosoma cruzi; amastigotes in Vero cells, 72 h; read-out: activity IC50, SN3 strain, am. forms
T. cruzi Arequipa strain = assay: In vivo trypanocidal activity on BALB/c mice (acute and chronic Chagas disease); set-up: species or system Trypanosoma cruzi
Description: (§1) Female BALB/c mice aged 10–12 weeks and with a size of 20–24 g were divided into five groups (n = 3 per group): 0, negative control group (uninfected and untreated mice); I, positive control group (infected and untreated mice); II, BZN group (infected mice treated with BZN); III, 26 group (infected mice treated with 26); and IV, 28 group (infected mice treated with 28).
Mice were infected by intraperitoneal injection of 5 × 10^5 BTs of T. cruzi Arequipa strain per mouse in 200 μL PBS.[42] Subsequently, the treatment was intraperitoneally administered (∼200 μL) once daily for 5 consecutive days.
(§2) The tested selenocompounds and BZN were prepared at 2 mg·mL^–1 in an aqueous suspension vehicle containing 5% (v/v) DMSO and 0.5% (w/v) hydroxypropyl methylcellulose, as previously reported.[52] Compounds (20 mg·kg^–1 per day) were administered for 5 consecutive days (total dosages of 100 mg·kg^–1), and vehicle only was administered in the negative and positive control groups. Treatments began when the infection was confirmed (9 dpi) for acute-phase-treated mice, and when it was established that the animals moved into the chronic phase (100 dpi, for chronic-phase-treated mice; Scheme 1).
[…]. Parasitemia was expressed as parasites·mL^–1.
Immunosuppression was performed by intraperitoneal injection of three doses of 200 mg·kg^–1 of ISOPAC CP at 3–4 day intervals (Scheme 1), as previously reported.[53] Mice were closely monitored for side effects or for secondary infections due to immunosuppression. Within 7 days after the last CP injection, parasitemia reactivation was determined by counting BTs according the procedure described for parasitemia in the acute phase.[42]
On 145 dpi, the mice were euthanized using CO2, followed by exsanguination via cardiac puncture, and blood was collected. […]. In addition, spleens were weighed to assess splenomegaly.[42]
DNA extraction of the post-mortem organs/tissues was performed using Wizard Genomic DNA Purification Kit,[41] and the extracted DNA was subjected to amplification by PCR based on the spliced leader (SL) intergenic region sequence of T. cruzi (for detailed description, see literature reported previously).[55] Finally, the PCR products were resolved by electrophoresis on a 2% agarose gel (containing GelRed nucleic gel stain) for 90 min at 90 V.
Circulating antibodies in serum against both antigens were quantitatively evaluated in triplicate by the ELISA test in 96-well plates using diluted serum samples (1:80 in PBS), as previously described.[41]

[7] = test system: T. cruzi amastigotes, Tulahuen strain; assay: Screening against intracellular amastigotes, Tulahuen strain; format: cell-based, Trypanosoma cruzi; settings: Trypanosoma cruzi, TULAHUEN; amastigotes in Vero cells, 72 h; read-out: activity IC50, Tulahuen strain, am. forms
[8] = format: in vivo, BALB/c mice; settings: variation vs control
Description: as §1, §2
Serum samples obtained from blood in several days post-infection (Scheme 1) were sent to the Biochemical Service (University of Granada) to measure a series of biochemical parameters with the commercial Cromakit using a clinical chemistry analyzer (BS-200, Shenzhen Mindray Biomedical Electronics Co., LTD), as previously described.[41]

[9] = test system: T. cruzi epimastigotes, Tulahuen strain; assay: Screening against extracellular epimastigotes, Tulahuen strain; format: cell-based, Trypanosoma cruzi; settings: Trypanosoma cruzi, TULAHUEN; 48 h + 24 h resazurin; read-out: Activity IC50, epimastigote form, Tulahuen strain
[10] = treatment in acute phase, 15th dpi (2 days after treatment)
[11] = treatment in acute phase, necropsy day
[12] = treatment in chronic phase, 106th dpi (2 days after treatment)
[13] = treatment in chronic phase, necropsy day

Structure (SMILES): O=C(Cn1ccnc1[N+](=O)[O-])NCc1ccccc1 [BZN, benznidazole, reference compound]
- IC50 [1]: 12.4 ± 1.1 µM
- IC50 [2]: 15.1 ± 1.3 µM
- IC50 [3]: 8.3 ± 0.7 µM
- IC50 (Vero cells): 80.4 ± 7.1 µM
- inhibition of nucleic acid levels [4]: up to 22%
- IC50 [5]: 15.1 µM
- IC50 [6]: 16.6 ± 1.4 µM
- parasite-free organs/tissues by PCR, acute phase treatment (T. cruzi Arequipa strain; 20 mg·kg–1 per day i.p. 5 days from 9 dpi, necropsy 145 dpi): 28.6%
- anti-T. cruzi IgG levels (ELISA), chronic phase treatment (T. cruzi Arequipa strain; 20 mg·kg–1 per day i.p. 5 days from 100 dpi): similar
- parasite-free organs/tissues by PCR, chronic phase treatment (T. cruzi Arequipa strain; 20 mg·kg–1 per day i.p. 5 days from 100 dpi, necropsy 145 dpi): 42.9%
- IC50 [7]: 10 ± 0.8 µM
- ALP (liver marker) [8, 10]: = (=, variation ≤ 10%)
- ALT/GPT (liver marker) [8, 10]: ++ (++/--, 20-30% increase/decrease over the range)
- AST/GOT (liver marker) [8, 10]: ++++ (++++/----, ˃ 40% increase/decrease over the range)
- CK-MB (heart marker) [8, 10]: = (=, variation ≤ 10%)
- LDH (heart marker) [8, 10]: = (=, variation ≤ 10%)
- Total bilirubin (liver marker) [8, 10]: ++++ (++++/----, ˃ 40% increase/decrease over the range)
- Urea (kidney marker) [8, 10]: -- (++/--, 20-30% increase/decrease over the range)
- Uric acid (kidney marker) [8, 10]: ---- (++++/----, ˃ 40% increase/decrease over the range)
- ALP (liver marker) [8, 11]: = (=, variation ≤ 10%)
- ALT/GPT (liver marker) [8, 11]: = (=, variation ≤ 10%)
- AST/GOT (liver marker) [8, 11]: + (+/-, 10-20% increase/decrease over the range)
- CK-MB (heart marker) [8, 11]: - (+/-, 10-20% increase/decrease over the range)
- LDH (heart marker) [8, 11]: = (=, variation ≤ 10%)
- Total bilirubin (liver marker) [8, 11]: ++ (++/--, 20-30% increase/decrease over the range)
- Urea (kidney marker) [8, 11]: -- (++/--, 20-30% increase/decrease over the range)
- Uric acid (kidney marker) [8, 11]: - (+/-, 10-20% increase/decrease over the range)
- ALP (liver marker) [8, 12]: ++++ (++++/----, ˃ 40% increase/decrease over the range)
- ALT/GPT (liver marker) [8, 12]: ++ (++/--, 20-30% increase/decrease over the range)
- AST/GOT (liver marker) [8, 12]: + (+/-, 10-20% increase/decrease over the range)
- CK-MB (heart marker) [8, 12]: -- (++/--, 20-30% increase/decrease over the range)
- LDH (heart marker) [8, 12]: -- (++/--, 20-30% increase/decrease over the range)
- Total bilirubin (liver marker) [8, 12]: + (+/-, 10-20% increase/decrease over the range)
- Urea (kidney marker) [8, 12]: - (+/-, 10-20% increase/decrease over the range)
- Uric acid (kidney marker) [8, 12]: - (+/-, 10-20% increase/decrease over the range)
- ALP (liver marker) [8, 13]: = (=, variation ≤ 10%)
- ALT/GPT (liver marker) [8, 13]: ++ (++/--, 20-30% increase/decrease over the range)
- AST/GOT (liver marker) [8, 13]: + (+/-, 10-20% increase/decrease over the range)
- CK-MB (heart marker) [8, 13]: -- (++/--, 20-30% increase/decrease over the range)
- LDH (heart marker) [8, 13]: -- (++/--, 20-30% increase/decrease over the range)
- Total bilirubin (liver marker) [8, 13]: ++ (++/--, 20-30% increase/decrease over the range)
- Urea (kidney marker) [8, 13]: = (=, variation ≤ 10%)
- Uric acid (kidney marker) [8, 13]: - (+/-, 10-20% increase/decrease over the range)
- IC50 [9]: 19.7 ± 1.7 µM
